Measured values: ChEMBL document CHEMBL5209587, “Membrane potential based assay for SLC23A1 using HEK-293 SLC23A1 OE cells” (2022)

Biological target: Solute carrier family 23 member 1 (Homo sapiens) (UniProt Q9UHI7)
Experiment: Substrate uptake and inhibition of the Na(+)/L-Ascorbic Acid Transporter 1 (SVCT1, SLC23A1) as assessed by the fluorescent FLIPR membrane potential dye in HEK-293 JumpIN-SLC23A1 cells (PubChem AID: 1794810)
Assay type: functional, cell-based
Details: HEK293

Chain of Solute carrier family 23 member 1 (Homo sapiens) (Q9UHI7 whole entry): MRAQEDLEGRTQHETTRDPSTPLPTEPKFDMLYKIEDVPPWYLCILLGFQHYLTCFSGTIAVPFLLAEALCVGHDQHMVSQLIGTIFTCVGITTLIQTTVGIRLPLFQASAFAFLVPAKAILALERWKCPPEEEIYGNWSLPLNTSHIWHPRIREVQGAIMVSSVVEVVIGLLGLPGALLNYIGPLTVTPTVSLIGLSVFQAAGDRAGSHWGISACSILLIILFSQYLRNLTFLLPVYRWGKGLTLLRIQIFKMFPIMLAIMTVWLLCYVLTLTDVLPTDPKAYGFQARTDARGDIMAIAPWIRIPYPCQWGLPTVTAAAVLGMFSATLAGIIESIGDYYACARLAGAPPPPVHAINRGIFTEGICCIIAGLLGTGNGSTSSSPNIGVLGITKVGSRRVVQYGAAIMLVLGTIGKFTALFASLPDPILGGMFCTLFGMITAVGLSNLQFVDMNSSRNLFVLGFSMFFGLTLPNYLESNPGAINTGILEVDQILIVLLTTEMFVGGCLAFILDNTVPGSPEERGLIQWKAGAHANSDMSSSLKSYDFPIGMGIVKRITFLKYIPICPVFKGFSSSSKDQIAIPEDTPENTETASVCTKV

`O=C(CCc1ccc(O)cc1)c1c(O)cc(O)cc1O` was tested, and the inhibition was “Inhibitor: Almost Complete Inhibition At A Concentration Of 300 Μm”.
